Experimental data published in patent US20250041245A1, “ENDOXIFEN FOR TREATMENT OF CANCERS” (Atossa Therapeutics, Inc., priority 2021, published 2025).
“And” between values parts separate entries of the source, which are not always exact repeats. Equal entries are not always repeated. “Also recorded” adds a separate entry of the source.

Assays:
Format in all cases: cell-based, human
[1] = test system: patient-derived tumor organoids (PDTOs), endometrial carcinoma; test: Endoxifen screen in PDTOs: endometrial carcinoma; parameters: key to Personalization Category: Personalization categories range from High, Good, Moderate, Low, to None; Personalization categories range from High, Good, Moderate, Low, to None; Personalization categories range from High, Good, Moderate, Low, to None; Personalization categories range from High, Good, Moderate, Low, to None; Personalization categories range from High, Good, Moderate, Low, to None; key to Sensitivity Category: Sensitivity categories range from High, Good, Moderate, Low, to None; Sensitivity categories range from High, Good, Moderate, Low, to None; Sensitivity categories range from High, Good, Moderate, Low, to None; Sensitivity categories range from High, Good, Moderate, Low, to None; Sensitivity categories range from High, Good, Moderate, Low, to None; AUC: unit not given beside the values
Protocol: (§1) This example describes screening endoxifen in patient-derived tumor organoids. Endoxifen was tested as a single agent on tumor organoids derived from patients diagnosed with various cancer types using a personalized cancer treatment screening assay (PARIS© Test, SEngine Precision Medicine). The screen utilized patient-derived tumor organoids (PDTOs) along with high-throughput drug screening and machine learning-guided data analysis to quantify the efficacy of endoxifen against samples derived from individual patients diagnosed with various cancer types. PDTOs are self-organizing, three-dimensional organoid structures that recapitulate structural, functional, and genomic aspects of in vivo organs. The PDTOs were grown in culture from patient tumor biopsy samples.
(§2) Fresh patient biopsy samples received following surgery were cleaned and purified. Immune cells (e.g., lymphocytes, blood cells), cancer-associated fibroblasts, and other non-tumor cells were removed to establish pure PDTOs for endoxifen testing. The tumor organoids were grown and expanded by supplying organ- and patient-specific growth factors and nutrients. The PDTOs were treated with increasing concentrations of endoxifen ranging from about 30 nM to about 10 μM, and the drug response was measured using a luminescence readout. A lower luminescence was indicative of a stronger drug response.
(§3) The results were analyzed using a “SEngine Precision Medicine” (SPM) scoring system to assess the sensitivity and personalization of each tumor organoid to endoxifen. […]
This example describes testing endoxifen efficacy against 17 distinct cancer types in patient-derived tumor organoids (PDTOs). […] For each PDTO sample, the drug response was measured using a luminescent readout over a range of endoxifen concentrations. The drug response was evaluated based on the area under the fitted dose response curve (AUC) and the SPM scoring system. […] The area under the curve was calculated from the normalized curve. […] The SPM scores were based on machine learning models that incorporate values for how well the drug kill patient cells (sensitivity metric), the relative drug responses of a patient to all other patients in a sample database (personalization metric), and knowledge of clinical outcomes for patients that had been evaluated with the personalized cancer screening assay (PARIS® Test, SEngine Precision Medicine).
(§4) The SPM scoring system evaluated whether a PDTO was unresponsive or responsive to endoxifen and the degree of drug response for PDTOs that were responsive to endoxifen. […] The sensitivity category was determined from the sensitivity metric and is a measure of overall cell death of a patient's cells in response to endoxifen at six concentrations. […]

[2] = test system: patient-derived tumor organoids (PDTOs), thyroid cancer; test: Endoxifen screen in PDTOs: thyroid cancer; parameters: key to Personalization Category: Personalization categories range from High, Good, Moderate, Low, to None; Personalization categories range from High, Good, Moderate, Low, to None; Personalization categories range from High, Good, Moderate, Low, to None; Personalization categories range from High, Good, Moderate, Low, to None; Personalization categories range from High, Good, Moderate, Low, to None; key to Sensitivity Category: Sensitivity categories range from High, Good, Moderate, Low, to None; Sensitivity categories range from High, Good, Moderate, Low, to None; Sensitivity categories range from High, Good, Moderate, Low, to None; Sensitivity categories range from High, Good, Moderate, Low, to None; Sensitivity categories range from High, Good, Moderate, Low, to None; AUC: unit not given beside the values
Protocol: as §1, §2
(§5) The results were analyzed using a “SEngine Precision Medicine” (SPM) scoring system to assess the sensitivity and personalization of each tumor organoid to endoxifen. The SPM score correlates with clinical outcomes, such that a higher SPM score for a specific PDTO-drug combination predicts a more favorable clinical outcome following treatment of the corresponding patient with the tested drug.
(§6) This example describes testing endoxifen efficacy against 17 distinct cancer types in patient-derived tumor organoids (PDTOs). Screening of PDTOs was performed as described in EXAMPLE 1. For each PDTO sample, the drug response was measured using a luminescent readout over a range of endoxifen concentrations. The drug response was evaluated based on the area under the fitted dose response curve (AUC) and the SPM scoring system. AUC values were normalized for each PDTO. Briefly, data points at each drug concentration were first normalized to a negative control, then a dose response drug curve was approximated using a four-parameter logistic model fitted to the normalized data points. The area under the curve was calculated from the normalized curve. Normalization allowed for comparison of AUC values between patient samples. The SPM scores were based on machine learning models that incorporate values for how well the drug kill patient cells (sensitivity metric), the relative drug responses of a patient to all other patients in a sample database (personalization metric), and knowledge of clinical outcomes for patients that had been evaluated with the personalized cancer screening assay (PARIS® Test, SEngine Precision Medicine).
as §4

[3] = test system: patient-derived tumor organoids (PDTOs), sarcoma; test: Endoxifen screen in PDTOs: sarcoma; parameters: key to Personalization Category: Personalization categories range from High, Good, Moderate, Low, to None; Personalization categories range from High, Good, Moderate, Low, to None; Personalization categories range from High, Good, Moderate, Low, to None; Personalization categories range from High, Good, Moderate, Low, to None; Personalization categories range from High, Good, Moderate, Low, to None; AUC: unit not given beside the values
Protocol: as §1
as §2, with “The tumor organoids were grown and expanded by supplying organ- and patient-specific growth factors and nutrients.” left out
as §3
This example describes testing endoxifen efficacy against 17 distinct cancer types in patient-derived tumor organoids (PDTOs). […] For each PDTO sample, the drug response was measured using a luminescent readout over a range of endoxifen concentrations. The drug response was evaluated based on the area under the fitted dose response curve (AUC) and the SPM scoring system. […] The area under the curve was calculated from the normalized curve. […]
The SPM scoring system evaluated whether a PDTO was unresponsive or responsive to endoxifen and the degree of drug response for PDTOs that were responsive to endoxifen. […]

[4] = test system: patient-derived tumor organoids (PDTOs), melanoma; test: Endoxifen screen in PDTOs: melanoma; parameters: key to Personalization Category: Personalization categories range from High, Good, Moderate, Low, to None; Personalization categories range from High, Good, Moderate, Low, to None; Personalization categories range from High, Good, Moderate, Low, to None; Personalization categories range from High, Good, Moderate, Low, to None; Personalization categories range from High, Good, Moderate, Low, to None; key to Sensitivity Category: Sensitivity categories range from High, Good, Moderate, Low, to None; Sensitivity categories range from High, Good, Moderate, Low, to None; Sensitivity categories range from High, Good, Moderate, Low, to None; Sensitivity categories range from High, Good, Moderate, Low, to None; Sensitivity categories range from High, Good, Moderate, Low, to None; AUC: unit not given beside the values
Protocol: as §1, §2, §5, §6
The SPM scoring system evaluated whether a PDTO was unresponsive or responsive to endoxifen and the degree of drug response for PDTOs that were responsive to endoxifen. The SPM scoring system generated metrics an SPM score, predictive of clinical outcome, overall drug response (response category), drug sensitivity (sensitivity category), and drug personalization (personalization category). SPM scores ranged from 1-15, corresponding to the following drug response categories: no response (SPM 1-8), low response (SPM 9), moderate response (SPM 10-11), good response (SPM 12-13), and exceptional response (SPM 14-15). […] Moderate to good drug responses (SPM 10-13) may indicate that a drug has clinical relevance, possibly in combination with other drugs. The sensitivity category was determined from the sensitivity metric and is a measure of overall cell death of a patient's cells in response to endoxifen at six concentrations. […]

[5] = melanoma PDTOs, each line one patient sample

CC/C(=C(\c1ccc(O)cc1)c1ccc(OCCNC)cc1)c1ccccc1 [Endoxifen, 4-hydroxy-N-desmethyltamoxifen]
Personalization Category ([1]; patient 39): None
Sensitivity Category ([1]; patient 39): None
AUC ([1]; patient 39, normalized area under fitted dose response curve): 1.0102
SPM Score ([1]; patient 39, score range 1-15): 1
IC50 ([2]; Homo sapiens, patient 4, four-parameter logistic fit): 7.1 µM
Personalization Category ([2]; patient 4): None
Sensitivity Category ([2]; patient 4): None
AUC ([2]; patient 4, normalized area under fitted dose response curve): 0.9109
SPM Score ([2]; patient 4, score range 1-15): 1
Personalization Category ([3]; patient 21): None
AUC ([3]; patient 21, normalized area under fitted dose response curve): 0.9995
SPM Score ([3]; patient 21, score range 1-15): 1
IC50 ([4]; Homo sapiens, skin cancer organoid assays, multiple skin cancers (summary statement)): < 10 µM
Personalization Category [4, 5]: Low and Good and High
Response Category [4, 5]: Low (low response (SPM 9)); also recorded: Moderate (moderate response (SPM 10-11)); also recorded: Good (good response (SPM 12-13))
Sensitivity Category [4, 5]: Low and Moderate
IC50 ([4]; melanoma PDTOs, each line one patient sample, four-parameter logistic fit): 2.74 µM and 3.3 µM and 1.44 µM and 7.06 µM
AUC ([4]; melanoma PDTOs, each line one patient sample, normalized area under fitted dose response curve): 0.8952 and 0.7865 and 0.6541 and 0.8094
SPM Score ([4]; melanoma PDTOs, each line one patient sample, score range 1-15): 9 and 11 (2×) and 13
